The text below walks through data of patent US9688695B2, “Imidazothiadiazole and imidazopyrazine derivatives as protease activated receptor 4 (PAR4) inhibitors for treating platelet aggregation” (BRISTOL-MYERS SQUIBB COMPANY, priority 2012, dated 2017).

This test concerns the target PAR4 (Homo sapiens (Human), UniProt Q96RI0). Kind of test: FLIPR assay in PAR4-expressing HEK293 cells (PAR4 antagonist activity, calcium mobilization). The class given is cell-based. The settings on record: H-Ala-Phe(4-F)-Pro-Gly-Trp-Leu-Val-Lys-Asn-Gly-NH2-induced calcium mobilization. In a few lines:
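HEK293 EBNA cells stably expressing human PAR4 (also endogenous PAR1) preincubated 30 min at room temperature with compound in HBSS/10 mM HEPES, 0.67% DMSO final. PAR4 agonist peptide then added and intracellular calcium mobilization monitored by fluorescence.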

Chain of PAR4 (Q96RI0 18-385): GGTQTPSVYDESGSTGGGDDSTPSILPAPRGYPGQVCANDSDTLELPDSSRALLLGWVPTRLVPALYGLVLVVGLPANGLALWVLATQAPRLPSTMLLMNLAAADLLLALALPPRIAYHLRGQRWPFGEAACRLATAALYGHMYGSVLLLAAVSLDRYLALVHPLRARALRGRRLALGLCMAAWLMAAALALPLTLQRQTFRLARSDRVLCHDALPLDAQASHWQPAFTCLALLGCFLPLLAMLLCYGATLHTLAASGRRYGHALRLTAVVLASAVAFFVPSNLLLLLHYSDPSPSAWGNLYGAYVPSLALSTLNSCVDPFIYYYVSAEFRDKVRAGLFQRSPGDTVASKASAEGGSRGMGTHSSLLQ

For orientation: EC50 means the concentration at which the effect is half-maximal. On to `COc1nn2cc(-c3cc4c(OCc5csc(-c6ccc(C(=O)N(C)C(C)(C)C)cc6)n5)cc(F)cc4o3)nc2s1` [Example 182, N-(tert-Butyl)-4-(4-(((6-fluoro-2-(2-methoxyimidazo[2,1-b][1,3,4]thiadiazol-6-yl)benzofuran-4-yl)oxy)methyl)thiazol-2-yl)-N-methylbenzamide], for which the EC50 worked out at 0.3 nM. Regarding `COc1cc(OCc2csc(C3(F)CCCCC3)n2)c2cc(-c3cn4nc(OC)sc4n3)oc2c1` [Example 134, 6-(4-((2-(1-Fluorocyclohexyl)thiazol-4-yl)methoxy)-6-methoxybenzofuran-2-yl)-2-methoxyimidazo[2,1-b][1,3,4]thiadiazole], the EC50 was 1.2 nM. Under `COc1cc(OCc2csc(C3(C)CCOCC3)n2)c2cc(-c3cn4nc(OC)sc4n3)oc2c1` [Example 167, 2-Methoxy-6-(6-methoxy-4-((2-(4-methyltetrahydro-2H-pyran-4-yl)thiazol-4-yl)methoxy)benzofuran-2-yl)imidazo[2,1-b][1,3,4]thiadiazole] stands 0.26 nM; under `COc1cc(OCc2csc(C3(c4ccc(Cl)cc4)CCOC3)n2)c2cc(-c3cn4nc(OC)sc4n3)oc2c1` (stereo not drawn) [Example 163, 6-(4-((2-(3-(4-Chlorophenyl)tetrahydrofuran-3-yl)thiazol-4-yl)methoxy)-6-methoxybenzofuran-2-yl)-2-methoxyimidazo[2,1-b][1,3,4]thiadiazole], 0.82 nM.

As for `COc1cc(OCc2csc(-c3ccc(C(=O)N(C)C(C)(C)C)cc3)n2)c2cc(-c3cn4nc(OC)sc4n3)oc2c1` [Example 297], the EC50 was 0.52 nM. The same measure for `COc1cc(OCc2csc(-c3ccc4c(c3)OCO4)n2)c2cc(-c3cn4nc(OC)sc4n3)oc2c1` [Example 57]: 0.67 nM; for `COc1cc(OCc2csc(-c3cccnc3F)n2)c2cc(-c3cn4nc(OC)sc4n3)oc2c1` [Example 78]: 0.4 nM; for `CCN(C(=O)c1ccc(-c2nc(COc3cc(OC)cc4oc(-c5cn6nc(OC)sc6n5)cc34)cs2)cc1)C(C)C` [Example 287]: 0.48 nM. Under `COc1cc(OCc2csc(N3CCN(S(C)(=O)=O)CC3)n2)c2cc(-c3cn4nc(OC)sc4n3)oc2c1` [Example 100, 2-Methoxy-6-(6-methoxy-4-((2-(4-(methylsulfonyl)piperazin-1-yl)thiazol-4-yl)methoxy)benzofuran-2-yl)imidazo[2,1-b][1,3,4]thiadiazole] stands 0.25 nM. The same measure for `COc1cc(OCc2csc(C3CCN(S(=O)(=O)c4ccccc4)CC3)n2)c2cc(-c3cn4nc(OC)sc4n3)oc2c1` [Example 113, 2-Methoxy-6-(6-methoxy-4-((2-(1-(phenylsulfonyl)piperidin-4-yl)thiazol-4-yl)methoxy)benzofuran-2-yl)imidazo[2,1-b][1,3,4]thiadiazole]: 0.43 nM; for `COc1cc(OCc2csc(N3CCCOCC3)n2)c2cc(-c3cn4nc(C)ccc4n3)oc2c1` [Example 218]: 0.56 nM; for `COc1cc(OCc2nc(-c3ccc(C(N)=O)cc3)sc2C)c2cc(-c3cn4nc(OC)sc4n3)oc2c1` [Example 70]: 0.89 nM. For the molecule `COc1cc(OCc2csc(N3CCC(F)CC3)n2)c2cc(-c3cn4nc(C)ccc4n3)oc2c1` [Example 272], the EC50 amounted to 2 nM. The same measure for `CCN(CC1CC1)C(=O)c1ccc(-c2nc(COc3cc(OC)cc4oc(-c5cn6nc(OC)sc6n5)cc34)cs2)cc1` [Example 312]: 0.77 nM; for `COc1nn2cc(-c3cc4c(OCc5csc(-c6ccc(C(=O)N(C)CC#N)cc6)n5)cc(F)cc4o3)nc2s1` [Example 184, N-(Cyanomethyl)-4-(4-(((6-fluoro-2-(2-methoxyimidazo[2,1-b][1,3,4]thiadiazol-6-yl)benzofuran-4-yl)oxy)methyl)thiazol-2-yl)-N-methylbenzamide]: 0.38 nM; for `COc1cc(OCc2csc(N(C)CCC#N)n2)c2cc(-c3cn4nc(OC)sc4n3)oc2c1` [Example 106, 3-((4-(((6-Methoxy-2-(2-methoxyimidazo[2,1-b][1,3,4]thiadiazol-6-yl)benzofuran-4-yl)oxy)methyl)thiazol-2-yl)(methyl)amino)propanenitrile]: 0.98 nM. The same measure for `COCCC(C)(F)c1nc(COc2cc(OC)cc3oc(-c4cn5nc(OC)sc5n4)cc23)cs1` (stereo not drawn) [Example 147]: 0.96 nM; for `COc1cc(OCc2csc(N3CC[S+]([O-])CC3)n2)c2cc(-c3cn4nc(OC)sc4n3)oc2c1` [Example 55]: 0.79 nM. In the case of `COc1cc(OCc2csc(N3CCOCC3)n2)c2cc(-c3cn4nc(C)ccc4n3)oc2c1` [Example 215], the EC50 was determined as 3.3 nM. The same measure for `COc1cc(OCc2csc(-c3ccc(C#N)cc3)n2)c2cc(-c3cn4nc(C)ccc4n3)oc2c1` [Example 224]: 0.75 nM; for `COc1cc(OCc2csc(-c3ccc(Cl)cc3)n2)c2cc(-c3cn4nc(OC)sc4n3)oc2c1` [Example 27]: 1.6 nM. Under `COc1nn2cc(-c3cc4c(OCc5csc(C6(F)CCOCC6)n5)cc(Cl)cc4o3)nc2s1` [Example 190] stands 0.47 nM. The same measure for `COc1cc(OCc2csc(-c3ccc(C(=O)NC4CC4)cc3)n2)c2cc(-c3cn4nc(OC)sc4n3)oc2c1` [Example 315]: 1.3 nM. As for `COc1cc(OCc2nc(-c3ccc(C(=O)OC(C)(C)C)cc3)sc2C)c2cc(-c3cn4nc(OC)sc4n3)oc2c1` [Example 45, tert-Butyl 4-(4-(((6-methoxy-2-(2-methoxyimidazo[2,1-b][1,3,4]thiadiazol-6-yl)benzofuran-4-yl)oxy)methyl)-5-methylthiazol-2-yl)benzoate], the EC50 was found to be 1.3 nM. The same measure for `COc1cc(OCc2nc(-c3ccc(C(=O)N(C)C)cc3)sc2C(C)C)c2cc(-c3cn4nc(OC)sc4n3)oc2c1` [Example 42, 4-(5-Isopropyl-4-(((6-methoxy-2-(2-methoxyimidazo[2,1-b][1,3,4]thiadiazol-6-yl)benzofuran-4-yl)oxy)methyl)thiazol-2-yl)-N,N-dimethylbenzamide]: 2.5 nM; for `COc1cc(OCc2csc(CCC3CC3)n2)c2cc(-c3cn4nc(OC)sc4n3)oc2c1` [Example 60]: 0.38 nM; for `COc1cc(OCc2csc(Nc3cccc(C)c3)n2)c2cc(-c3cn4nc(C)ccc4n3)oc2c1` [Example 267]: 4.2 nM. The same measure for `COc1cc(OCc2nc(-c3cccc(COC(C)=O)c3)sc2C)c2cc(-c3cn4nc(OC)sc4n3)oc2c1` [Example 76]: 0.42 nM.

Take `COc1cc(OCc2csc(C3(c4cccc(Cl)c4)CCOC3)n2)c2cc(-c3cn4nc(OC)sc4n3)oc2c1` (stereo not drawn) [Example 165, 6-(4-((2-(3-(3-Chlorophenyl)tetrahydrofuran-3-yl)thiazol-4-yl)methoxy)-6-methoxybenzofuran-2-yl)-2-methoxyimidazo[2,1-b][1,3,4]thiadiazole]: the EC50 came out at 1.1 nM. Under `COCc1sc(N2CCOCC2)nc1COc1cc(OC)cc2oc(-c3cn4nc(OC)sc4n3)cc12` [Example 90, 4-(4-(((6-Methoxy-2-(2-methoxyimidazo[2,1-b][1,3,4]thiadiazol-6-yl)benzofuran-4-yl)oxy)methyl)-5-(methoxymethyl)thiazol-2-yl)morpholine] stands 0.33 nM; under `COc1cc(OCc2csc(C3(c4cccc(Cl)c4)CCOCC3)n2)c2cc(-c3cn4nc(OC)sc4n3)oc2c1` [Example 155, 6-(4-((2-(4-(3-Chlorophenyl)tetrahydro-2H-pyran-4-yl)thiazol-4-yl)methoxy)-6-methoxybenzofuran-2-yl)-2-methoxyimidazo[2,1-b][1,3,4]thiadiazole], 0.62 nM.

`COc1cc(OCc2csc(N3CCC(F)(F)CC3)n2)c2cc(-c3cn4nc(C)ccc4n3)oc2c1` [Example 235]: the EC50 was 0.44 nM. In the case of `COc1cc(OCc2csc(-c3ccc(F)cc3F)n2)c2cc(-c3cn4nc(OC)sc4n3)oc2c1` [Example 24], the EC50 amounted to 1.1 nM. With `COc1cc(OCc2csc(C3(O)CCOCC3)n2)c2cc(-c3cn4nc([C@H](C)F)sc4n3)oc2c1` [Example 196, (S)-4-(4-(((2-(2-(1-Fluoroethyl)imidazo[2,1-b][1,3,4]thiadiazol-6-yl)-6-methoxybenzofuran-4-yl)oxy)methyl)thiazol-2-yl)tetrahydro-2H-pyran-4-ol], the EC50 was 0.46 nM. As for `COc1cc(OCc2csc(C3(NS(=O)(=O)C(C)(C)C)CCOCC3)n2)c2cc(-c3cn4nc(OC)sc4n3)oc2c1` [Example 171, N-(4-(4-(((6-Methoxy-2-(2-methoxyimidazo[2,1-b][1,3,4]thiadiazol-6-yl)benzofuran-4-yl)oxy)methyl)thiazol-2-yl)tetrahydro-2H-pyran-4-yl)-2-methylpropane-2-sulfonamide], the EC50 turned out to be 0.27 nM. Regarding `COc1cc(OCc2csc(N3CCOCC3)n2)c2cc(-c3cn4nc([C@H](C)F)sc4n3)oc2c1` [Example 193, (S)-4-(4-(((2-(2-(1-Fluoroethyl)imidazo[2,1-b][1,3,4]thiadiazol-6-yl)-6-methoxybenzofuran-4-yl)oxy)methyl)thiazol-2-yl)morpholine], the EC50 came to 0.91 nM. Under `COc1cc(OCc2csc(N3CCN(c4cccc(Cl)n4)CC3)n2)c2cc(-c3cn4nc(C)ccc4n3)oc2c1` [Example 284] stands 1.1 nM; under `COc1cc(OCc2nc(C3(F)CCOCC3)sc2C(F)(F)F)c2cc(-c3cn4nc(OC)sc4n3)oc2c1` [Example 132, 6-(4-((2-(4-Fluorotetrahydro-2H-pyran-4-yl)-5-(trifluoromethyl)thiazol-4-yl)methoxy)-6-methoxybenzofuran-2-yl)-2-methoxyimidazo[2,1-b][1,3,4]thiadiazole], 1.9 nM. Regarding `COc1cc(OCc2csc(C3(N[S@+]([O-])C(C)(C)C)CCOCC3)n2)c2cc(-c3cn4nc(OC)sc4n3)oc2c1` [Example 170, (R)-N-(4-(4-(((6-Methoxy-2-(2-methoxyimidazo[2,1-b][1,3,4]thiadiazol-6-yl)benzofuran-4-yl)oxy)methyl)thiazol-2-yl)tetrahydro-2H-pyran-4-yl)-2-methylpropane-2-sulfinamide], the EC50 came to 1.7 nM.
